The text below walks through data of PMC4818591 (ChemMedChem, 2015).

Read-outs that look alike come from different tables or passages of the source.

In assay [1] the target is HDAC1 (Homo sapiens, UniProt Q13547). Description: HDAC1 isozyme inhibition. The note with it: for SI HDAC1/6: selectivity index. It counts as biochemical.
For assay [2], the target named is HDAC2 (Homo sapiens, UniProt Q92769). Description: HDAC2 isozyme inhibition. Type of assay: biochemical. The note with it: for SI HDAC2/6: selectivity index.
Chain of HDAC2 (Q92769 whole entry): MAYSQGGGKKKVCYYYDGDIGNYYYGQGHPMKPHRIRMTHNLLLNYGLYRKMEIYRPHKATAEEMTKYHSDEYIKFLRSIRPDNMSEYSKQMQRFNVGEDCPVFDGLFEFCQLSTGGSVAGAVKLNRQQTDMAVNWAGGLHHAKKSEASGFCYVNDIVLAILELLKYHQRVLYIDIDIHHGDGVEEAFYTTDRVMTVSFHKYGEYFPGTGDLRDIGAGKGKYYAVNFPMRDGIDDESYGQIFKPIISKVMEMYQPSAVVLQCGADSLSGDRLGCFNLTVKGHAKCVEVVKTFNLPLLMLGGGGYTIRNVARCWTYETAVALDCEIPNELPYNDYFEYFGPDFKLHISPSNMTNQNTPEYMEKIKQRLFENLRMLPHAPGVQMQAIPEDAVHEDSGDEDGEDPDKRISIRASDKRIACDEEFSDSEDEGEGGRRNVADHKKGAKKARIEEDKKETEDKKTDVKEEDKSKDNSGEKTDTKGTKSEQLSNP
The target in assay [3] is HDAC3 (Homo sapiens, UniProt O15379). Description: HDAC3 isozyme inhibition. It counts as biochemical. The note with it: for SI HDAC3/6: selectivity index.
Chain of HDAC3 (O15379 whole entry): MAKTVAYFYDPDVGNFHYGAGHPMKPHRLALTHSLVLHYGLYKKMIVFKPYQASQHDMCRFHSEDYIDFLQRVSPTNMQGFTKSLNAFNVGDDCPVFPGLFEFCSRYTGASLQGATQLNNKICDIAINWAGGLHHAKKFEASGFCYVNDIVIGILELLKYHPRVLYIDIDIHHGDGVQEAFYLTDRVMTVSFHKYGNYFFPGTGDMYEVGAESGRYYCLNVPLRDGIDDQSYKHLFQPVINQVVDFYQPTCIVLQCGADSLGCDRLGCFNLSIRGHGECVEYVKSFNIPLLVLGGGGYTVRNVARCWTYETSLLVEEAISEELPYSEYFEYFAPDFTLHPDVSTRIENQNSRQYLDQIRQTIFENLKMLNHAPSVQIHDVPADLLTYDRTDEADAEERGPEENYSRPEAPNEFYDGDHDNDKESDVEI
Chain of HDAC3 (Q9Y618 395-489 partner limits assumed): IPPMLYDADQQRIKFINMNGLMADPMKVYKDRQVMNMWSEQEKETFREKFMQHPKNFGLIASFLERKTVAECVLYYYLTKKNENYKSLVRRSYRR
Assay [4] addresses T1, HDAC10 (Homo sapiens, UniProt Q969S8).
T1 sequence (Q969S8 1-669): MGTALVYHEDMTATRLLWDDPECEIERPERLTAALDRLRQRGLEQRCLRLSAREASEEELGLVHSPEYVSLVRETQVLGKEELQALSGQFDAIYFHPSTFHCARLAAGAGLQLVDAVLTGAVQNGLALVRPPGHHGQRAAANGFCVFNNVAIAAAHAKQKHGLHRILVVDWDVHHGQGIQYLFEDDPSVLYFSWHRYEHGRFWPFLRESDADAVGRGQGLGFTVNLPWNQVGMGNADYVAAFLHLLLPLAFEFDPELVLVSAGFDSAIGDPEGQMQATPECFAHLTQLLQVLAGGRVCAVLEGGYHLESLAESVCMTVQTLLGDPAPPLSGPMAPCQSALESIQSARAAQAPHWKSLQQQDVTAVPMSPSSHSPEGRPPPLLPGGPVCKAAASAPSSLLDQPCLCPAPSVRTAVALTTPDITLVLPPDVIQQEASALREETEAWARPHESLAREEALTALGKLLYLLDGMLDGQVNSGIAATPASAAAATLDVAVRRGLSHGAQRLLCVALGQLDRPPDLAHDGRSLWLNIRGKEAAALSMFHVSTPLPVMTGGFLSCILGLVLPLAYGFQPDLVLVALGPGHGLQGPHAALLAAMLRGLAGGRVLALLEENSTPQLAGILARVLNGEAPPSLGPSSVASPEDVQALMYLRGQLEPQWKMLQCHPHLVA
Description: HDAC10 isozyme inhibition. The note with it: for SI HDAC10/6: selectivity index. It counts as biochemical.

In assay [5] the test system is L3.6pl pancreatic cancer cells. The experiment in a line: Growth inhibition, MTS cell proliferation assay, L3.6pl. It counts as cell-based. The note with it: Homo sapiens, 72 h, read-out: L3.6pl GI50. A general note: Tetrazolium assays rely on reduction of a dye to a coloured formazan, in cell work by metabolically active cells.
Assay [6] has as its system L3.6pl pancreatic cancer cells. The experiment in a line: Apoptosis by Hoechst staining and PARP cleavage, L3.6pl. The note with it: 10 μM, 24 h. It counts as cell-based.
The test system of assay [7] is BxPC3 pancreatic cancer cells. Description: Apoptosis induction, BxPC3. Type of assay: cell-based. The note with it: BxPC3, data not shown.
Assay [8] concerns the target T2, HDAC6 (Homo sapiens, UniProt Q9UBN7).
T2 sequence (Q9UBN7 1-1215): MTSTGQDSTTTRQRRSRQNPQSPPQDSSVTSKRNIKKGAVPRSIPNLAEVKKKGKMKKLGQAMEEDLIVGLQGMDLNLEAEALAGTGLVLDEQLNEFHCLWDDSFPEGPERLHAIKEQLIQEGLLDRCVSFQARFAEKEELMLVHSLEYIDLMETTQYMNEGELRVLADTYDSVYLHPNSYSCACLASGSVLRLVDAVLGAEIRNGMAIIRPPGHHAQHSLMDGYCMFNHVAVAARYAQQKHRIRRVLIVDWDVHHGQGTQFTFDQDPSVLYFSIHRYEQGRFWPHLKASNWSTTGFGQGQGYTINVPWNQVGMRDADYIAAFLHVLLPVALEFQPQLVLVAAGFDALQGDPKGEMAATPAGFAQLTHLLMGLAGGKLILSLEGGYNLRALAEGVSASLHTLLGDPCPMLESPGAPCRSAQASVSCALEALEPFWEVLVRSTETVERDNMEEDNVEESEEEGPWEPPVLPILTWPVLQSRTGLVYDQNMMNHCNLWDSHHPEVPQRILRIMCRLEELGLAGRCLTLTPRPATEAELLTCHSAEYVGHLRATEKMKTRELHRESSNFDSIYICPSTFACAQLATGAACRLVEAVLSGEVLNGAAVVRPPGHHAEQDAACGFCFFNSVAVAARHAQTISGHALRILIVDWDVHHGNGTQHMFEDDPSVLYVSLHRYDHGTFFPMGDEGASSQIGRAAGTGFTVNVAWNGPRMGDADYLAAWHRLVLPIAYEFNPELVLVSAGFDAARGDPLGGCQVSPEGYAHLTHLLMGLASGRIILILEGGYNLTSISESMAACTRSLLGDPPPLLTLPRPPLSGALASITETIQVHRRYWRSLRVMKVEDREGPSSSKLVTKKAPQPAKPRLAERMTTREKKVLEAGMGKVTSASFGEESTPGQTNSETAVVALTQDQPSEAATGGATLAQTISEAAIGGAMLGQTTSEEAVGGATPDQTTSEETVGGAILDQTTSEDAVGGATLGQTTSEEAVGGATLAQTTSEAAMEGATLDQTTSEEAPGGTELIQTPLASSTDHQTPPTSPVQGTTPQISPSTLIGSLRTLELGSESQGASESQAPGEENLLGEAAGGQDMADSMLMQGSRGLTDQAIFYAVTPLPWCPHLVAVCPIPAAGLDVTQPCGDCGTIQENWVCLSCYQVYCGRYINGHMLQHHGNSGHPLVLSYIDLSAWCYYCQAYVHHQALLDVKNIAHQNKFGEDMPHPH
Description: HDAC6 isozyme inhibition. It counts as biochemical.

Assay [9] has as its system BxPC3 subcutaneous xenograft. The note with it: BxPC3 subcutaneous xenograft mouse model; cited from earlier work.

Chain of HDAC1 (Q13547 whole entry): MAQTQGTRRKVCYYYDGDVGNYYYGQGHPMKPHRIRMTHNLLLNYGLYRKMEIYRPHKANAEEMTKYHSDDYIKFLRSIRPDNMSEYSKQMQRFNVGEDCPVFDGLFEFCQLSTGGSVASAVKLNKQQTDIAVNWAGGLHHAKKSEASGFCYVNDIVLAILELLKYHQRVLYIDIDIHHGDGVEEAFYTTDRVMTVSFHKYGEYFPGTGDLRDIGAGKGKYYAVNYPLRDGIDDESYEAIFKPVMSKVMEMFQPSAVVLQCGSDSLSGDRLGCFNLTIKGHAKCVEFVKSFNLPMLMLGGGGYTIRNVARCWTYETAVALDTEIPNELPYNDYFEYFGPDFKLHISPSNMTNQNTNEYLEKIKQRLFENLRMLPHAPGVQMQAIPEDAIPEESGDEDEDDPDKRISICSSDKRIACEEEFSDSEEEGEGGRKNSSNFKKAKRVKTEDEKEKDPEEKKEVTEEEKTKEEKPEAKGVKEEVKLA

Consider `O=C(CCCc1cc(C(=O)NO)no1)Nc1nc(-c2ccccc2)cs1` [Compound 1, 5-[3-[N-(4-Phenylthiazol-2-yl)carbamoyl]propyl]isoxazole-3-carbohydroxamic Acid], for which the “SI HDAC1/6” value in assay [1] came out at 4.3. In addition, the “SI HDAC2/6” value in assay [2] is on record as 15. Moreover, the “SI HDAC3/6” value in assay [3] is recorded as 11. Moreover, the “SI HDAC10/6” value in [4] is 10. Also, the GI50 in assay [5] was 1.3 µM. For the same compound, the “induction of apoptosis (Hoechst staining, PARP cleavage)” value in assay [6] is “effectively induced apoptosis”. Moreover, the induction of apoptosis result in assay [7] was “none of compounds 1, 2, or 4 induced apoptosis”.

On to `O=C(CCc1cc(C(=O)NO)no1)Nc1nc(-c2ccccc2)cs1` [Compound 2, 5-[2-[N-(4-Phenylthiazol-2-yl)carbamoyl]ethyl]isoxazole-3-carbohydroxyamic Acid], for which the half-inhibitory concentration (IC50) worked out at 0.307 µM in assay [1] (read-out: HDAC Isoform, IC50, Class I, 1, singlet, 10-dose IC50 mode, 3-fold serial dilution starting at 30 μM, >50000 = no inhibition at 50 μM); 1.14 µM in [2] (read-out: HDAC Isoform, IC50, Class I, 2, singlet, 10-dose IC50 mode, 3-fold serial dilution starting at 30 μM, >50000 = no inhibition at 50 μM); 0.32 µM in [3] (read-out: HDAC Isoform, IC50, Class I, 3, singlet, 10-dose IC50 mode, 3-fold serial dilution starting at 30 μM, >50000 = no inhibition at 50 μM); 0.031 ± 0.0034 µM in [8] (read-out: HDAC Isoform, IC50, Class II, 6, duplicate, 10-dose IC50 mode, 3-fold serial dilution starting at 30 μM, average ± standard deviation); 0.407 µM in assay [4] (read-out: HDAC Isoform, IC50, Class II, 10, singlet, 10-dose IC50 mode, 3-fold serial dilution starting at 30 μM, >50000 = no inhibition at 50 μM). Moreover, the “SI HDAC1/6” value in assay [1] came out at 10. Further, the “SI HDAC2/6” value in assay [2] is listed as 37. Moreover, the “SI HDAC3/6” value in [3] was found to be 10. For the same compound, the “SI HDAC10/6” value in assay [4] is given as 13. Further, the “induction of apoptosis (Hoechst staining, PARP cleavage)” value in assay [6] is “effectively induced apoptosis”. In addition, the induction of apoptosis entry in [7] is “none of compounds 1, 2, or 4 induced apoptosis”.

`CCOC(=O)Nc1ccc(-c2csc(NC(=O)CCCc3cc(C(=O)NO)no3)n2)cc1` [Compound 4, N-[4-[2-[4-[3-(N-Hydroxycarbamoyl)isoxazol-5-yl]butyrylamino]thiazol-4-yl]phenyl]carbamic Acid Ethyl Ester]: the “SI HDAC1/6” value in assay [1] came out at 4.1. Besides, the “SI HDAC2/6” value in [2] is 17. In addition, the “SI HDAC3/6” value in assay [3] is reported as 7.2. For the same compound, the “SI HDAC10/6” value in [4] is recorded as 6.6. In [6], the “induction of apoptosis (Hoechst staining, PARP cleavage)” value is given as “effectively induced apoptosis”. Also, the induction of apoptosis entry in [7] is “none of compounds 1, 2, or 4 induced apoptosis”.

On to `O=C(NO)c1cc(Cn2c3ccccc3c3ccccc32)on1` [Compound 17, 5-(Carbazol-9-ylmethyl)isoxazole-3-carbohydroxamic Acid], for which the IC50 in [1] was 38.7 µM; in [2] it was above 50 µM; in [3], 44 µM; in assay [8], 1.51 ± 0.065 µM; in [4], above 50 µM. For the same compound, the “SI HDAC1/6” value in assay [1] turned out to be 26. Besides, the “SI HDAC3/6” value in [3] is 29.

Regarding `Cc1[nH]c2ccccc2c1CCNCc1ccc(/C=C/C(=O)NO)cc1` [panobinostat], in [9], the “apoptosis and tumor growth” value was “promote apoptosis and reduce tumor growth”.

As usually defined, the GI50 is the concentration that inhibits growth by half. In general, IC50 refers to the concentration needed to halve the response being measured.
